Columns and labels:
Test in all cases: KINOMEscan (ScanMAX) kinase profiling
Format in all cases: binding
[1] = molecular target: T1, panel of 468 kinases (Homo sapiens, UniProt Q52WX2); conditions: SBK1; 1 μM; read-out: % control
T1 construct: purchased KINOMEscan (ScanMAX) service

[2] = molecular target: T2, panel of 468 kinases (Homo sapiens, UniProt Q8TF76); conditions: HASPIN; 1 μM; read-out: % control
T2 construct: purchased KINOMEscan (ScanMAX) service
T2 sequence (Q8TF76 1-798): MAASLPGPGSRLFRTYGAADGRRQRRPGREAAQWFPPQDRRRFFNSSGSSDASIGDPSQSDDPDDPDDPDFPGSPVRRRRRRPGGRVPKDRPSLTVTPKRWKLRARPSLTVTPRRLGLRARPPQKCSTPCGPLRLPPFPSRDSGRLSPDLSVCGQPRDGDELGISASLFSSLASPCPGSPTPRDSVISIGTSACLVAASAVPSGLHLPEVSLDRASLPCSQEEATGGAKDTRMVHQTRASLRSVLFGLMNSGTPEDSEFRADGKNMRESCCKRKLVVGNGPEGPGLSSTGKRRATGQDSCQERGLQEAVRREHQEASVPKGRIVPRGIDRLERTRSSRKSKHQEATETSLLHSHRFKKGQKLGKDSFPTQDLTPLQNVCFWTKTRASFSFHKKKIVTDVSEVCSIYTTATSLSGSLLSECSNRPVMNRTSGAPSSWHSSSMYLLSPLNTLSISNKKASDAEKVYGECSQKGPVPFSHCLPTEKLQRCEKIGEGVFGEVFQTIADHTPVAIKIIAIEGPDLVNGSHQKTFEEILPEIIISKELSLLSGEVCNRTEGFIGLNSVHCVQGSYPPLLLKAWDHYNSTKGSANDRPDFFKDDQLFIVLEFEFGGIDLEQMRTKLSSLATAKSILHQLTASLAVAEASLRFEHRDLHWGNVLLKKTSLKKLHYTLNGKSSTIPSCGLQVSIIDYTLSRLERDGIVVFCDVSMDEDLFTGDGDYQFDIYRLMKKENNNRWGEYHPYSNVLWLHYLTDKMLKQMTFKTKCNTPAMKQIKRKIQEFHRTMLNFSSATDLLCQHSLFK

[3] = molecular target: T3, panel of 468 kinases (Homo sapiens, UniProt Q9BRS2); conditions: RIOK1; 1 μM; read-out: % control
T3 construct: purchased KINOMEscan (ScanMAX) service
T3 sequence (Q9BRS2 1-568): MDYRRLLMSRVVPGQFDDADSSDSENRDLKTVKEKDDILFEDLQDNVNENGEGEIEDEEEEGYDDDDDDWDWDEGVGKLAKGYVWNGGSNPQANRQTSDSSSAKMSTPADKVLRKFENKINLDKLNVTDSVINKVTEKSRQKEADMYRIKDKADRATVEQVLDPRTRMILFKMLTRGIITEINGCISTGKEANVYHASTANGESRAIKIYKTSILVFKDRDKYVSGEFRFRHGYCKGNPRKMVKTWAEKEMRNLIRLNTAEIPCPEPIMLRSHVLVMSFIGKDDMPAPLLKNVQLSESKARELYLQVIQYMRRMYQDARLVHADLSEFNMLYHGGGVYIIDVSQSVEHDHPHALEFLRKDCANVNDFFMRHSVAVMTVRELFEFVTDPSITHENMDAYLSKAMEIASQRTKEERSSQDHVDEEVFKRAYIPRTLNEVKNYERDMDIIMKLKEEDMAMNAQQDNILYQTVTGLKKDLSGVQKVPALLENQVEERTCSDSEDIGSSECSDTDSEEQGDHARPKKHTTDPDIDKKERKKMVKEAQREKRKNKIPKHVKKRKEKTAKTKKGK

[4] = molecular target: T4, panel of 468 kinases (Homo sapiens, UniProt Q9UM73, C1156Y); conditions: ALK(C1156Y); 1 μM; read-out: % control
T4 construct: purchased KINOMEscan (ScanMAX) service
T4 sequence (Q9UM73 19-1620 C1156Y): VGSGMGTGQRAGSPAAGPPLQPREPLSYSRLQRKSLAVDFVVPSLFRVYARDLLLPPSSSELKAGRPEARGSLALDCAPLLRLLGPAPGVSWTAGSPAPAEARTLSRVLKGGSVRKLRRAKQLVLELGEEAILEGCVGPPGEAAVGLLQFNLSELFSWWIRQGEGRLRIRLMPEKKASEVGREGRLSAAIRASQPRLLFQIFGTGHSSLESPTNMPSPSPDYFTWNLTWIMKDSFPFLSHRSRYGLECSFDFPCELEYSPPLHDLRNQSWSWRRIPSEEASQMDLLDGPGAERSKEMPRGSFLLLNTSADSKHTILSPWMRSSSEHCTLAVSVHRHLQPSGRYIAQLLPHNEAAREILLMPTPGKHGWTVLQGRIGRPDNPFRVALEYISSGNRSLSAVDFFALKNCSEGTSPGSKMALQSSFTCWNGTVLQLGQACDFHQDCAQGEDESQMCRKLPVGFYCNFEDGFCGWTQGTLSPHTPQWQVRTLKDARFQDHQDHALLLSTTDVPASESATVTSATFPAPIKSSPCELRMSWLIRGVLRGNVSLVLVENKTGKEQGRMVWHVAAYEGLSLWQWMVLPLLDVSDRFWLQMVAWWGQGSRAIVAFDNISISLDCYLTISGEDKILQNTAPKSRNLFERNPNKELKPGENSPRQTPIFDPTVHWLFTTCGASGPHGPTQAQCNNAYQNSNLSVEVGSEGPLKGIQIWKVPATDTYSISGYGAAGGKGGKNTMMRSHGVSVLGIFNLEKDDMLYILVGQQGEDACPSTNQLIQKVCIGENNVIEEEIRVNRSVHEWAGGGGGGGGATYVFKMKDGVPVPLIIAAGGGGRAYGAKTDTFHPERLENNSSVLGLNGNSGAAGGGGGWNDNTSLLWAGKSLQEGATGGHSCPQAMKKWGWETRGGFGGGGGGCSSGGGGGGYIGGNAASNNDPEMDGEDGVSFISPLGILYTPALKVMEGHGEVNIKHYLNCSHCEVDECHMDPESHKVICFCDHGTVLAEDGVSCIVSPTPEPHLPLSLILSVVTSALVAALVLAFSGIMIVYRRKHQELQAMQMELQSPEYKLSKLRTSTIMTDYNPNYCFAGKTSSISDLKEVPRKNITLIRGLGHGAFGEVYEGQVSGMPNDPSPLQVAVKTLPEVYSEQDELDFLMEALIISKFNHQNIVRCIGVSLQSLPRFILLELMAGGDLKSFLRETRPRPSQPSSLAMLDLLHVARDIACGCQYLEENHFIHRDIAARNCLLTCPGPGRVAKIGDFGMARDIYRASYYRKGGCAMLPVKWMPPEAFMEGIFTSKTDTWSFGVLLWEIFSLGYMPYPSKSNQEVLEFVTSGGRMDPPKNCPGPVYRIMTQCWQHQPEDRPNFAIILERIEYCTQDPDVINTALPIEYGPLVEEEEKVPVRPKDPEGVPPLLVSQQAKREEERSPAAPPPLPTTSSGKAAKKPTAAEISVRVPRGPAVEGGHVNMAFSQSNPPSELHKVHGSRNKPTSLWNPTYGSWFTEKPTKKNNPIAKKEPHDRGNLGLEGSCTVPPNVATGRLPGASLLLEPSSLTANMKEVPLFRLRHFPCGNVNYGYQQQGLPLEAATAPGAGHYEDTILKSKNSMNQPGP

[5] = molecular target: T5, panel of 468 kinases (Homo sapiens, UniProt O43283); conditions: LZK; 1 μM; read-out: % control
T5 construct: purchased KINOMEscan (ScanMAX) service
T5 sequence (O43283 1-966): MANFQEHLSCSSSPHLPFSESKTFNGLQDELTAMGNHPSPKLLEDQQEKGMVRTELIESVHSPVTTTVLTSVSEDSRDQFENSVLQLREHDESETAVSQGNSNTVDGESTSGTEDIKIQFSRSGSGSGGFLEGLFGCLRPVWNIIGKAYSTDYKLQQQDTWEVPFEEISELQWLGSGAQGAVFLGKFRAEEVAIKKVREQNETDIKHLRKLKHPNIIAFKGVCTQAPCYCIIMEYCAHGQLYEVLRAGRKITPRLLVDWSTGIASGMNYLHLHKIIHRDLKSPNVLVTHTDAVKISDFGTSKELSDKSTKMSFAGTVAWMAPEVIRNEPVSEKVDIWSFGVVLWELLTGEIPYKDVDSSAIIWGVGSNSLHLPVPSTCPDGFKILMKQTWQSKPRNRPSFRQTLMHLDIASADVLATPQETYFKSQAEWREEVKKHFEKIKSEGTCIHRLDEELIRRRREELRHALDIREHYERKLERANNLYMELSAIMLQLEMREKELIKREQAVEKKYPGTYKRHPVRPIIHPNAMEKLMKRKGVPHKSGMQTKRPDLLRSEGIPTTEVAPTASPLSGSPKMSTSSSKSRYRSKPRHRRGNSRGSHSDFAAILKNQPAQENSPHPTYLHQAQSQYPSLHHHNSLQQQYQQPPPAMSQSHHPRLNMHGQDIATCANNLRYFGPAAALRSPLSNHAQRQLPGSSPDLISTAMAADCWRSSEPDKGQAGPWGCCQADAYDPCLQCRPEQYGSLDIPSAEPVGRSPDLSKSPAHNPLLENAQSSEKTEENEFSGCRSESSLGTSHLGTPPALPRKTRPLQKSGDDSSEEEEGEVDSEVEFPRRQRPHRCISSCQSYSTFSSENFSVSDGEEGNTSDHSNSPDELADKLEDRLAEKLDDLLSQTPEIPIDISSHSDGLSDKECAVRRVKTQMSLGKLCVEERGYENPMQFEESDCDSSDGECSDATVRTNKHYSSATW

T1 sequence (Q52WX2 whole entry): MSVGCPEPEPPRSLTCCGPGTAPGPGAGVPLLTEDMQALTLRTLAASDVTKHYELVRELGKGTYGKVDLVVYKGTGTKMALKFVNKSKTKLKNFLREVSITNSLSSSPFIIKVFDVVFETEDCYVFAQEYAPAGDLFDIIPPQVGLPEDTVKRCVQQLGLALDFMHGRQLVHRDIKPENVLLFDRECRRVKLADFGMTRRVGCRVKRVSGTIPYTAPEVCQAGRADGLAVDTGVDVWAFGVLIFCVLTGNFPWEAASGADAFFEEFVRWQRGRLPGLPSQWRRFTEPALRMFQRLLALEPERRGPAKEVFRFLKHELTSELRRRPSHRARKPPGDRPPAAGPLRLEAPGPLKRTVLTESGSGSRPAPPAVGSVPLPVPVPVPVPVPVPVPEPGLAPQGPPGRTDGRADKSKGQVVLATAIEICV

Row | Structure (SMILES) | remaining binding at 1 µM [1] [%] | remaining binding at 1 µM [2] [%] | remaining binding at 1 µM [3] [%] | remaining binding at 1 µM [4] [%] | remaining binding at 1 µM [5] [%]
1 | CNc1nc(Nc2ccc(S(=O)(=O)N3CCC(N4CCOCC4)CC3)cc2OC)nc2[nH]cc(Cl)c12 [Compound 12, 5-chloro-N2-(2-methoxy-4-((4-morpholinopiperidin-1-yl)sulfonyl)phenyl)-N4-methyl-7H-pyrrolo[2,3-d]pyrimidine-2,4-diamine] | 77 | 29 | 100 | 2.7 | 63
2 | CNc1nc(Nc2ccc(P3(=O)CCN(C4CCOCC4)CC3)cc2OC)nc2[nH]cc(Cl)c12 [Compound 77, 4-(4-((5-chloro-4-(methylamino)-7H-pyrrolo[2,3-d]pyrimidin-2-yl)amino)-3-methoxyphenyl)-1-(tetrahydro-2H-pyran-4-yl)-1,4-azaphosphinane 4-oxide] | 68 | 35 | 98 | 1.3 | 62
3 | CNc1nc(Nc2ccc(C(=O)N3CCC(N4CCOCC4)CC3)c3c2OCO3)nc2[nH]cc(Cl)c12 [Compound 75, (7-((5-chloro-4-(methylamino)-7H-pyrrolo[2,3-d]pyrimidin-2-yl)amino)benzo[d][1,3]dioxol-4-yl)(4-morpholinopiperidin-1-yl)methanone] | 64 | 25 | 48 | 1.2 | 57

— patent US12479847B2 (DANA-FARBER CANCER INSTITUTE, INC., priority 2019, dated 2025)
